Source: PubChem BioAssay AID1053159 (Broad Institute, 2014)

Test system: HepG2 PCSK9 mRNA qRT-PCR, time course 0.5-28 h
Test: PCSK9 mRNA reduction over time, late-stage follow-up, mechanism study for Trib1 inducer project, cell-based, HepG2, RT-PCR, time course (AID 1053159)
Conditions: dose 2.5; stronger effect = lower value

## CN1C(=O)c2cc(NC(=O)c3ccc(C(F)(F)F)cc3)ccc2OC[C@@H]2O[C@H](CC(=O)NC3Cc4ccccc4C3)CC[C@@H]21
  relative PCSK9 expression: 19%
